Measured values: US11019823B2, “Method of controlling water surface inhabiting pests” (SHA'KED MICROBIAL SOLUTIONS LTD., priority 2013, dated 2021)

Assays:
Anopheles stevensi eggs = settings: 72 hrs, 30° C., probit analysis
Description: Data were analyzed by probit analysis with the PROBIT Procedure in SAS (Version 9.2, Cary N.C.).

[1] = tested on: Non-biting midge eggs (Chironomidae: Tanypodinae); settings: a week, 30° C., probit analysis
Description: Non-biting midge eggs (Chironomidae: Tanypodinae) were obtained from the pond at Town Park, Auburn, Ala. The eggs were counted and transferred to spot plates containing 8 ml of NaDCC anhydrous solution at 0, 50, 500, 5000, and 50,000 ppm. Each treatment and control was replicated 3 times within the same spot plate and transferred to an incubator set for 30° C. and 12 hours of light and dark alterations for a week. Data were analyzed by probit analysis with the PROBIT Procedure in SAS (Version 9.2, Cary N.C.). Larvae were only counted as hatched if they were completely free from their egg casing.

[2] = tested on: Culex quinquefasciatus eggs; assay: Mosquito egg bioassay in spot plates, probit analysis; assay type: in vivo
Description: Mosquito eggs were obtained from the Center for Disease control in Fort Collins, Colo. The eggs were counted and transferred to spot plates containing 8 ml of NaDCC anhydrous solution at 0, 50, 500, 5000, and 50,000 ppm. Each treatment concentration and control (0 ppm) was replicated 3 times within the same spot plate and transferred to an incubator set for 30° C. and 12 hrs of light and dark alterations for 25 hours. […] Larvae were counted as living, hatched dead, or unhatched dead 25 hrs after the bioassay was initiated. Larvae were only counted as hatched if they were completely free from their egg casing. Data were analyzed by probit analysis with the PROBIT Procedure in SAS (Version 9.2, Cary N.C.), producing an LC95 and natural response rate.

A. aegypti eggs = assay: as above; assay type: in vivo, Aedes aegypti
Description: A. aegypti eggs were obtained from the Center for Disease control in Fort Collins, Colo. The eggs were counted and transferred to spot plate treatment or control wells, and placed in an incubator. Larvae were counted as living, hatched dead, or unhatched dead 72 hours after the bioassay was initiated. […] The LC95 for A. aegypti was 470 ppm.

[3] = tested on: non-motile eggs of the insects; assay: Concentrated hypochlorite on insect egg hatching; assay type: in vivo; settings: 250-500 ppm of concentrated hypochlorite
Excerpt: In certain aspects the methods of the present invention target the non-motile eggs of the insects. 250-500 ppm of concentrated hypochlorite caused 95% of egg populations not to hatch.

[4] = Dissolution study: release of free available chlorine / NaDCC from floating pellets in deionized water (orthotolidine colorimetry, 436 nm); assay type: physicochemical
Description: The ability of the pellet to release free available chlorine from the water soluble NaDCC was measured over time using a colorimeric method. Three pellets were selected at random from the kilogram batch that was created. The dimensions and mass of each pellet was recorded and the pellets were added to an 800 ml high density polyethylene (HDPE) beaker filled with deionized water and covered with aluminum foil. NaDCC (0.1975 g) was added to a separate 800 ml plastic beaker as a control. 0.8 ml aliquots of each solution were pipetted into 50 ml volumetic flasks and brought to volume with deionized water. 10 ml aliquots of these diluted solutions were mixed with 100 μl of 0.1% orthotolidine in a vial, forming a clear, yellow solution. The solution was loaded into a cuvette and was analyzed using a Shimadzu UV160U UV-Vis Spectrophotometer at 436 nm.
Initial sample pulls occurred 15 minutes after the pellets and control sample were added to the water. Additional pulls were taken at about 2, 9, 11, 13, 15, 17, 24, and 36 hours.
Upon exposure to water, NaDCC breaks down to release free available chlorine that acts as an algae growth inhibitor. Orthotolidine reacts with the chlorine causing a color change allowing for colorimetic analysis to chart the dissolution of the NaDCC. The concentration of NaDCC released at each time point was calculated by constructing a calibration curve relating the free available chlorine response to the initial concentration of NaDCC. The initial concentration of NaDCC calculation is shown in Equation 1. The original aliquot of the control taken at the 15 minute mark was used to create standards ranging from 25-250 ppm. Concentration of initial NaDCC=initial mass of NaDCC/volume of deionized water Equation 1: 197.5 mg/0.800 L=246.9 ppm

[5] = tested on: toxic cyanobacterium Oscillatoria sp.; settings: 1.6 g NaDCC per enclosure of about 270 liter (Example 5)
[6] = tested on: cyanobacterium Oscillatoria sp.; settings: 1.2 g NaDCC per enclosure (Example 6)

With `O=c1nc([O-])n(Cl)c(=O)n1Cl.[Na+]` [NaDCC anhydrous, Sodium Dichloroisocyanurate (NaDCC) Anhydrous] the LC95 (Anopheles stevensi eggs) was 270 ppm, the LC95 [1] was 205.7 ppm and the “state of egg shells” value ([2]; 5000 ppm treatment) was “mostly dissolved”. The “state of egg shells” value ([2]; 50,000 ppm treatment) was “dissolved and unperceivable”, the LC95 ([2]; 25 hrs, 30° C., probit analysis) was 93.8 ppm and the “state of egg shells” value (A. aegypti eggs; 5000 ppm treatment) was “mostly dissolved”. The “state of egg shells” value (A. aegypti eggs; 50,000 ppm treatment) was “dissolved and unperceivable” and the LC95 (A. aegypti eggs; 72 hours, probit analysis) was 470 ppm.

With `OCl` [hypochlorite] the “egg populations not hatching” value [3] was 95%.

With `O=c1nc([O-])n(Cl)c(=O)n1Cl.[Na+]` [NaDCC, sodium dichloroisocyanurate] the “Concentration of NaDCC released” value ([4]; 0.25 hours) was 241.5 ppm, the Response ([4]; 0.25 hours, 436 nm, orthotolidine, 800 ml deionized water) was 2.053 AU and the “Concentration of NaDCC released” value ([4]; 2.17 hours) was 228.4 ppm. The Response ([4]; 2.17 hours) was 1.941 AU, the “Concentration of NaDCC released” value ([4]; 9.17 hours) was 237.9 ppm and the Response ([4]; 9.17 hours) was 2.022 AU. For the same molecule, the “Concentration of NaDCC released” value ([4]; 11.00 hours) was 215.4 ppm, the Response ([4]; 11.00 hours) was 1.831 AU and the “Concentration of NaDCC released” value ([4]; 13.42 hours) was 238.8 ppm. For the same molecule, the Response ([4]; 13.42 hours) was 2.030 AU, the “Concentration of NaDCC released” value ([4]; 15.42 hours) was 233.9 ppm and the Response ([4]; 15.42 hours) was 1.988 AU. For the same molecule, the “Concentration of NaDCC released” value ([4]; 17.67 hours) was 231.5 ppm, the Response ([4]; 17.67 hours) was 1.968 AU and the “Concentration of NaDCC released” value ([4]; 24.00 hours) was 217.6 ppm. The Response ([4]; 24.00 hours) was 1.850 AU, the “Concentration of NaDCC released” value ([4]; 36.00 hours) was 237.1 ppm and the Response ([4]; 36.00 hours) was 2.015 AU. The “effect on cyanobacterial infestation” value [5] was “total elimination of the cyanobacterial infestation” and the “effect on cyanobacterial infestation” value [6] was “total elimination of the cyanobacterial infestation”.
